Laboratory results: ChEMBL document CHEMBL1201862, “PubChem BioAssay data set” (2004)
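Each compound was tested at five concentrations against cells in 96-well plates for 48 hours. At the GI50, growth is halved.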 The source made the active and inactive calls. Cut-off read from the data, not from the text of the source: active = GI50 up to about 1.1 µM and inactive = higher.

What was measured:
Experiment in all cases: DTP human tumour cell line panel, 48 h
KM12 = tested on: KM12
T47D = tested on: T47D
TK-10 = tested on: TK-10
NCI-H460 = tested on: NCI-H460
U-251 = tested on: U-251
NCI-H522 = tested on: NCI-H522
SK-MEL-5 = tested on: SK-MEL-5
M14 = tested on: M14
SF-295 = tested on: SF-295
NCI-H23 = tested on: NCI-H23
RXF 393 = tested on: RXF 393
HOP-92 = tested on: HOP-92
UACC-257 = tested on: UACC-257
786-0 = tested on: 786-0
OVCAR-4 = tested on: OVCAR-4
HCT-15 = tested on: HCT-15
Hs-578T = tested on: Hs-578T
UO-31 = tested on: UO-31
SNB-75 = tested on: SNB-75

Row | SMILES | GI50 (KM12) | GI50 (T47D) | GI50 (TK-10) | GI50 (NCI-H460) | GI50 (U-251) | GI50 (NCI-H522) | GI50 (SK-MEL-5) | GI50 (M14) | GI50 (SF-295) | GI50 (NCI-H23) | GI50 (RXF 393) | GI50 (HOP-92) | GI50 (UACC-257) | GI50 (786-0) | GI50 (OVCAR-4) | GI50 (HCT-15) [µM] | GI50 (Hs-578T) | GI50 (UO-31) | GI50 (SNB-75)
1 | Nc1nc(Cc2ccccc2)nc(Cc2ccccc2)c1-c1ccccc1 | 28.1 µM (inactive) | 36.8 µM (inactive) | 56.9 µM (inactive) | 28.2 µM (inactive) | 17.9 µM (inactive) | 16.9 µM (inactive) | 15.5 µM (inactive) | 30.3 µM (inactive) | 25.6 µM (inactive) | 17.7 µM (inactive) | 22.6 µM (inactive) | 11.5 µM (inactive) | 37.3 µM (inactive) | 22.9 µM (inactive) | 38.5 µM (inactive) | 21.5 | 85.7 µM (inactive) | 27 µM (inactive) | 
2 | c1ccc(C[N+]23C(CC[C@H]2c2ccccc2)CC[C@H]3c2ccccc2)cc1 (some centres not stated) | 21.8 µM (inactive) | 8.47 µM (inactive) | 74.1 µM (inactive) |  | 25.3 µM (inactive) | 18 µM (inactive) | 5.43 µM (inactive) | 21.6 µM (inactive) | 35.3 µM (inactive) |  | 18.3 µM (inactive) | 13.2 µM (inactive) | 6.24 µM (inactive) | 32.4 µM (inactive) | 31 µM (inactive) |  | 49.5 µM (inactive) | > 100 µM (inactive) | 21.4 µM (inactive)
3 | CC(=O)Nc1ccc(Nc2cc(O)nc(O)n2)cc1 | > 100 µM (inactive) | 14.1 µM (inactive) | > 100 µM (inactive) | > 100 µM (inactive) | > 100 µM (inactive) |  | > 100 µM (inactive) | > 100 µM (inactive) | > 100 µM (inactive) |  | > 100 µM (inactive) | > 100 µM (inactive) | > 100 µM (inactive) | > 100 µM (inactive) | > 100 µM (inactive) | > 100 | > 100 µM (inactive) | > 100 µM (inactive) | > 100 µM (inactive)
4 | CC(C)OC(=O)NNc1cccc(Cl)c1 | > 100 µM (inactive) | > 100 µM (inactive) | > 100 µM (inactive) | > 100 µM (inactive) | > 100 µM (inactive) |  | > 100 µM (inactive) | > 100 µM (inactive) | > 100 µM (inactive) | > 100 µM (inactive) | > 100 µM (inactive) | > 100 µM (inactive) | > 100 µM (inactive) | > 100 µM (inactive) |  | > 100 | > 100 µM (inactive) | > 100 µM (inactive) | > 100 µM (inactive)
5 | N#Cc1nc(-c2ccc(-c3nc(C#N)c(N)o3)cc2)oc1N | > 10 µM (inactive) | > 10 µM (inactive) | > 10 µM (inactive) | > 10 µM (inactive) |  | > 10 µM (inactive) | > 10 µM (inactive) | > 10 µM (inactive) | > 10 µM (inactive) | > 10 µM (inactive) | > 10 µM (inactive) | > 10 µM (inactive) | > 10 µM (inactive) | > 10 µM (inactive) | > 10 µM (inactive) | > 10 | > 10 µM (inactive) | > 10 µM (inactive) | > 10 µM (inactive)
6 | CCOC(=O)[C@@H]1ON2O[C@@H](OC3CCCC3(c3ccccc3)c3ccccc3)C[C@H]3OC(=O)[C@@H]1C32 (some centres not stated) | 15.6 µM (inactive) | 22.3 µM (inactive) | 21.1 µM (inactive) | 35.6 µM (inactive) | 56.4 µM (inactive) | 33.1 µM (inactive) | 32 µM (inactive) | 16.6 µM (inactive) | > 100 µM (inactive) | 18.4 µM (inactive) | 17.1 µM (inactive) | 64.6 µM (inactive) | 21.4 µM (inactive) | 30.2 µM (inactive) |  | 31 | 31.4 µM (inactive) | 19.1 µM (inactive) | 32.4 µM (inactive)
7 | NNC(=O)c1cccc2c1Oc1ccccc1S2 | > 100 µM (inactive) | 95.1 µM (inactive) | > 100 µM (inactive) | > 100 µM (inactive) | > 100 µM (inactive) |  | > 100 µM (inactive) | > 100 µM (inactive) | 77.3 µM (inactive) | > 100 µM (inactive) | 59.3 µM (inactive) | > 100 µM (inactive) | > 100 µM (inactive) | > 100 µM (inactive) | > 100 µM (inactive) | > 100 | 31.6 µM (inactive) | > 100 µM (inactive) | 50.6 µM (inactive)
8 | CO/N=C(/C(=O)OC)c1ccccc1COc1ccccc1C(F)(F)F | 30.2 µM (inactive) | 25.2 µM (inactive) | 54.5 µM (inactive) | 32.4 µM (inactive) | 31.6 µM (inactive) | 14.7 µM (inactive) | 6.22 µM (inactive) | 26.9 µM (inactive) | 10.7 µM (inactive) | 22.1 µM (inactive) | > 100 µM (inactive) | 30.2 µM (inactive) | 16 µM (inactive) | 43.6 µM (inactive) | 7.21 µM (inactive) | 33.3 | 47.3 µM (inactive) | 39.1 µM (inactive) | 
9 | O=C(O)[C@H]1CCCN1CP(=O)(O)CN1CCC[C@@H]1C(=O)O | > 100 µM (inactive) | > 100 µM (inactive) |  | > 100 µM (inactive) | > 100 µM (inactive) | > 100 µM (inactive) | > 100 µM (inactive) | > 100 µM (inactive) | > 100 µM (inactive) | > 100 µM (inactive) | > 100 µM (inactive) | > 100 µM (inactive) | > 100 µM (inactive) | > 100 µM (inactive) | > 100 µM (inactive) | > 100 | > 100 µM (inactive) | > 100 µM (inactive) | > 100 µM (inactive)
10 | Nc1cc(CO)cc(Nc2c3ccccc3nc3ccccc23)c1 | 16.3 µM (inactive) | 18.4 µM (inactive) | 16 µM (inactive) | 25.7 µM (inactive) | 15.1 µM (inactive) | 6.59 µM (inactive) | 17 µM (inactive) | 17.3 µM (inactive) | 10.9 µM (inactive) | 15.9 µM (inactive) | 16.8 µM (inactive) |  | 15.1 µM (inactive) | 16.7 µM (inactive) | 16 µM (inactive) | 17.6 | 18.3 µM (inactive) | 18.4 µM (inactive) | 15.8 µM (inactive)
11 | CCOC(=O)C1=CN2C(=N[C@H]3CCCC[C@@H]32)NC1=O | > 100 µM (inactive) | > 100 µM (inactive) | > 100 µM (inactive) | > 100 µM (inactive) | > 100 µM (inactive) | > 100 µM (inactive) | > 100 µM (inactive) | > 100 µM (inactive) | > 100 µM (inactive) | > 100 µM (inactive) |  | > 100 µM (inactive) | > 100 µM (inactive) | > 100 µM (inactive) | > 100 µM (inactive) | > 100 | > 100 µM (inactive) | > 100 µM (inactive) | > 100 µM (inactive)
12 | Cc1ccccc1-n1c(=O)c2ncn(C3CCCO3)c2n(-c2ccccc2C)c1=S (configuration not stated) | > 100 µM (inactive) | > 100 µM (inactive) | > 100 µM (inactive) |  |  | > 100 µM (inactive) | > 100 µM (inactive) | > 100 µM (inactive) | > 100 µM (inactive) | > 100 µM (inactive) | > 100 µM (inactive) | > 100 µM (inactive) | > 100 µM (inactive) | > 100 µM (inactive) | > 10 µM (inactive) | > 100 | > 100 µM (inactive) | > 100 µM (inactive) | 79.4 µM (inactive)
13 | CC1(C)CC2=NOS3=C2C(=NO3)C1c1ccccn1 (configuration not stated) | 61.2 µM (inactive) | > 100 µM (inactive) | > 100 µM (inactive) | 33.7 µM (inactive) | > 100 µM (inactive) | 38.5 µM (inactive) | 17.8 µM (inactive) | 40.7 µM (inactive) | > 100 µM (inactive) | > 100 µM (inactive) |  | > 100 µM (inactive) | 28.9 µM (inactive) | 34.7 µM (inactive) | > 100 µM (inactive) | 20 | > 100 µM (inactive) | 61.7 µM (inactive) | > 100 µM (inactive)
14 | Cc1ccc(N2C(=O)C3c4[nH]c5ccc(C)cc5c4C4CCC(C(C)(C)C)CC4C3C2=O)cc1 (configuration not stated) | 18 µM (inactive) | 7.5 µM (inactive) | 16.5 µM (inactive) | 7.36 µM (inactive) | 10.9 µM (inactive) | 14.3 µM (inactive) | 32.1 µM (inactive) | 31 µM (inactive) | 15.2 µM (inactive) | 16.6 µM (inactive) |  | 16.1 µM (inactive) | 33.1 µM (inactive) | 4.9 µM (inactive) | 6.27 µM (inactive) | 49.8 | 10.4 µM (inactive) | 37.9 µM (inactive) | 
15 | CCOC(=O)CNC(=O)C(CSCC1C(=O)Nc2ccccc21)NC(=O)CCC(N)C(=O)OCC (configuration not stated) | 2.89 µM (inactive) | 5.65 µM (inactive) | 1.62 µM (inactive) | 3.28 µM (inactive) | 1.31 µM (inactive) | 1.63 µM (inactive) | 1.6 µM (inactive) | 1.84 µM (inactive) | 2.77 µM (inactive) | 2.26 µM (inactive) | 1.19 µM (inactive) | 1.25 µM (inactive) | 4.16 µM (inactive) | 1.63 µM (inactive) | 2.78 µM (inactive) | 1.04 | 4.21 µM (inactive) | 1.23 µM (inactive) | 
16 | NC(Cn1ccc(=O)c(O)c1)C(=O)O (configuration not stated) [MIMOSINE] | > 100 µM (inactive) | > 100 µM (inactive) | > 100 µM (inactive) | > 100 µM (inactive) | > 100 µM (inactive) | > 100 µM (inactive) | > 100 µM (inactive) | > 100 µM (inactive) | > 100 µM (inactive) | > 100 µM (inactive) | > 100 µM (inactive) | > 100 µM (inactive) | > 100 µM (inactive) | > 100 µM (inactive) | > 100 µM (inactive) | > 100 | > 100 µM (inactive) | > 100 µM (inactive) | 
